Tested on: hepatocytes
Assay: Seq-Well scRNA-Seq of hepatocytes after APAP overdose (signature scores, DEG vs untreated)
Type: in vivo, mouse

## CC(=O)Nc1ccc(O)cc1 [APAP, acetaminophen]
APAP vs. UT
  mt-Co2 pct.1: 0.157
  mt-Co3 avg_logFC: −0.9584
  mt-Co3 pct.1: 0.198
  mt-Cytb avg_logFC: −0.8775
  mt-Cytb pct.1: 0.971
  mt-Nd1 avg_logFC: −0.76
  mt-Nd1 pct.1: 0.978
  mt-Nd2 avg_logFC: −0.8325
  mt-Nd2 pct.1: 0.978
  mt-Nd4 avg_logFC: −1.116
  mt-Nd4 pct.1: 0.942
  mt-Nd5 avg_logFC: −0.7797
  mt-Nd5 pct.1: 0.942
  mt-Rnr1 avg_logFC: −0.3538
  mt-Rnr1 pct.1: 1
  mt-Rnr2 avg_logFC: −0.5458
  mt-Rnr2 pct.1: 1
  n-R5-8s1 avg_logFC: 0.6965
  n-R5-8s1 pct.1: 0.268
Cluster A6 (APAP 6 hr)
  1700017B05Rik avg_logFC: 0.2894
  1700017B05Rik pct.1: 0.255
  2010003K11Rik avg_logFC: 0.4872
  2010003K11Rik pct.1: 0.396
  Abca1 avg_logFC: 0.5058
  Abca1 pct.1: 0.604
  Abhd2 avg_logFC: 0.3593
  Abhd2 pct.1: 0.37
  Agpat9 avg_logFC: 0.2968
  Agpat9 pct.1: 0.277
  Alb avg_logFC: 0.4181
  Alb pct.1: 1
  Apoa4 avg_logFC: 0.945
  Apoa4 pct.1: 0.721
  Apob avg_logFC: 0.3564
  Apob pct.1: 0.99
  Apobec1 avg_logFC: 0.2824
  Apobec1 pct.1: 0.239
  App avg_logFC: 0.3291
  App pct.1: 0.315
  Asl avg_logFC: 0.434
  Asl pct.1: 0.826
  B4galt5 avg_logFC: 0.402
  B4galt5 pct.1: 0.332
  Bach1 avg_logFC: 0.6724
  Bach1 pct.1: 0.461
  Bcl2l1 avg_logFC: 0.6863
  Bcl2l1 pct.1: 0.501
  Btg1 avg_logFC: 0.4265
  Btg1 pct.1: 0.356
  Btg2 avg_logFC: 0.5388
  Btg2 pct.1: 0.549
  C1qa avg_logFC: 0.471
  C1qa pct.1: 0.174
  C1qb avg_logFC: 0.5946
  C1qb pct.1: 0.234
  C1qc avg_logFC: 0.5477
  C1qc pct.1: 0.172
  C230081A13Rik avg_logFC: 0.4148
  C230081A13Rik pct.1: 0.279
  Ccl6 avg_logFC: 0.7552
  Ccl6 pct.1: 0.274
  Cd5l avg_logFC: 0.5663
  Cd5l pct.1: 0.21
  Cd14 avg_logFC: 0.3587
  Cd14 pct.1: 0.153
  Cd44 avg_logFC: 0.2929
  Cd44 pct.1: 0.115
  Cd53 avg_logFC: 0.2561
  Cd53 pct.1: 0.103
  Cd74 avg_logFC: 0.4419
  Cd74 pct.1: 0.155
  Cd97 avg_logFC: 0.3303
  Cd97 pct.1: 0.115
  Cd163 avg_logFC: 0.4066
  Cd163 pct.1: 0.146
  Cdkn1a avg_logFC: 1.099
  Cdkn1a pct.1: 0.702
  Cers6 avg_logFC: 0.4774
  Cers6 pct.1: 0.332
  Ces1d avg_logFC: 0.3854
  Ces1d pct.1: 0.859
  Cfp avg_logFC: 0.3251
  Cfp pct.1: 0.143
  Chic2 avg_logFC: 0.39
  Chic2 pct.1: 0.37
  Chka avg_logFC: 1.387
  Chka pct.1: 0.716
  Cidec avg_logFC: 0.3068
  Cidec pct.1: 0.253
  Clec4f avg_logFC: 0.9909
  Clec4f pct.1: 0.339
  Clec4d avg_logFC: 0.2622
  Clec4d pct.1: 0.107
  Cltc avg_logFC: 0.6346
  Cltc pct.1: 0.661
  Creb3l2 avg_logFC: 0.3363
  Creb3l2 pct.1: 0.329
  Ctsl avg_logFC: 0.4384
  Ctsl pct.1: 0.878
  Ctss avg_logFC: 0.7031
  Ctss pct.1: 0.212
  Cxadr avg_logFC: 0.6184
  Cxadr pct.1: 0.606
  Cyp4a14 avg_logFC: 0.5996
  Cyp4a14 pct.1: 0.776
  D10Wsu102e avg_logFC: 0.5134
  D10Wsu102e pct.1: 0.37
  Ddx3x avg_logFC: 0.4893
  Ddx3x pct.1: 0.692
  Ddx5 avg_logFC: 0.4732
  Ddx5 pct.1: 0.685
  Ddx21 avg_logFC: 0.6398
  Dgkd avg_logFC: 0.3462
  Dgkd pct.1: 0.282
  Dkc1 avg_logFC: 0.3232
  Dkc1 pct.1: 0.315
  Dot1l avg_logFC: 0.3695
  Dot1l pct.1: 0.282
  Dusp5 avg_logFC: 0.2889
  Dusp5 pct.1: 0.196
  Dusp6 avg_logFC: 0.4768
  Dusp6 pct.1: 0.482
  Dusp16 avg_logFC: 0.4153
  Dusp16 pct.1: 0.372
  Eaf1 avg_logFC: 0.5066
  Eaf1 pct.1: 0.427
  Efhd2 avg_logFC: 0.5545
  Efhd2 pct.1: 0.468
  Eif1a avg_logFC: 0.6585
  Eif1a pct.1: 0.599
  Eif4g2 avg_logFC: 0.3399
  Eif4g2 pct.1: 0.757
  Epas1 avg_logFC: 0.6264
  Epas1 pct.1: 0.604
  Etf1 pct.1: 0.606
  Etnppl avg_logFC: 0.4038
  Etnppl pct.1: 0.706
  Ets2 avg_logFC: 0.6277
  Ets2 pct.1: 0.415
  Fam107b avg_logFC: 0.4224
  Fam107b pct.1: 0.449
  Fam134b avg_logFC: 0.6202
  Fam134b pct.1: 0.678
  Fcgr3 avg_logFC: 0.294
  Fcgr3 pct.1: 0.107
  Fcna avg_logFC: 0.3469
  Fcna pct.1: 0.124
  Fxyd5 avg_logFC: 0.2697
  Fxyd5 pct.1: 0.138
  Gclc avg_logFC: 1.893
  Gclc pct.1: 0.962
  Gcnt2 avg_logFC: 0.4614
  Gcnt2 pct.1: 0.372
  Gm10800 avg_logFC: 0.5383
  Gm10800 pct.1: 0.115
  Gm15564 avg_logFC: 0.6079
  Gm15564 pct.1: 0.983
  Gm23388 avg_logFC: 0.4216
  Gm23388 pct.1: 0.222
  Gm24187 avg_logFC: 0.3969
  Gm24187 pct.1: 0.2
  Gm24245 avg_logFC: 0.5737
  Gm24245 pct.1: 0.422
  Gm26924 avg_logFC: 0.3029
  Gm26924 pct.1: 1
  Gnl3 avg_logFC: 0.477
  Gnl3 pct.1: 0.501
  Gpt2 avg_logFC: 0.3682
  Gpt2 pct.1: 0.764
  Gsta1 avg_logFC: 0.4204
  Gsta1 pct.1: 0.32
  Gtpbp4 avg_logFC: 0.4579
  Gtpbp4 pct.1: 0.477
  H2-Ab1 avg_logFC: 0.4491
  H2-Ab1 pct.1: 0.158
  H2-Eb1 avg_logFC: 0.3214
  H2-Eb1 pct.1: 0.105
  H3f3b avg_logFC: 0.5088
  H3f3b pct.1: 0.613
  Hba-a1 avg_logFC: 0.716
  Hba-a1 pct.1: 0.165
  Hba-a2 avg_logFC: 0.5328
  Hba-a2 pct.1: 0.131
  Heatr1 avg_logFC: 0.3433
  Heatr1 pct.1: 0.291
  Hic2 avg_logFC: 0.2673
  Hic2 pct.1: 0.15
  Hif1a avg_logFC: 0.4719
  Hif1a pct.1: 0.427
  Hilpda avg_logFC: 0.7698
  Hilpda pct.1: 0.403
  Hmox1 avg_logFC: 1.29
  Hmox1 pct.1: 0.558
  Hnf4a avg_logFC: 0.559
  Hnf4a pct.1: 0.835
  Hnrnpdl avg_logFC: 0.4137
  Hnrnpdl pct.1: 0.406
  Hsd17b13 avg_logFC: 0.5284
  Hsd17b13 pct.1: 0.864
  Ier5 avg_logFC: 0.2797
  Ier5 pct.1: 0.134
  Iigp1 avg_logFC: 0.6118

From US20230053540A1, “TREATMENT OF LIVER INJURY” (Massachusetts Institute of Technology, priority 2019, published 2023)
